The values below come from patent publication US10259810B2, “N-sulfonylated pyrazolo[3,4-b]pyridin-6-carboxamides and method of use” (AbbVie S.à.r.l., priority 2015, dated 2019).

The target of one assay is T1, ΔF508-CFTR (Homo sapiens, UniProt P13569, DEL508-508).
T1 construct: host or cells: CFBE41o-, doxycycline-inducible
Put plainly: CFTR cell surface levels using HRP-tagged ΔF508-CFTR expressing CFBE cells, intrinsic corrector capacity. The assay is classed as cell-based. The arrangement: % Activation: concentration or dose not given beside the values. Particulars: HRP-tagged ΔF508-CFTR expressing CFBE41o- cells, compound alone (intrinsic corrector capacity), 20 hours at 33° C.; for pEC50: read-out: EC50. Summed up:
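Read-out: chemiluminescent HRP activity of ECL4-HRP-tagged ΔF508-CFTR at the cell surface, 15 min substrate in dark. Normalized as 100×(sample−DMSO)/(positive control−DMSO).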

For the next assay, the target named is T2, CFTR ΔF508 (Homo sapiens, UniProt P13569, DEL508-508).
T2 construct: bronchial epithelial cells isolated from CF patients homozygous for the CFTR ΔF508 mutation; McGill University; Asterand; University of North Carolina hAEC-CF; host or cells: primary human bronchial epithelial cells from CF patients homozygous for ΔF508, differentiated at air-liquid interface
In words: Chronic TECC assay, primary bronchial epithelial cells of CF patients homozygous for CFTR ΔF508 (corrector, co-corrector and potentiator). The assay is classed as cell-based. Particulars: chronic TECC, Ieq = calculations based on the maximum current. Summed up: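 Primary bronchial epithelial cells from ΔF508-homozygous CF patients on collagen IV-coated Transwells were chronically treated with test compound plus corrector and potentiator, which were re-added before recording. Ieq was derived from PD and Rt in NaCl-Ringer, pH 7.4, at 37° C, with apical amiloride and bilateral forskolin, recorded every 2 min over 20 min. Ieq increase was normalized to controls, and EC50 was taken from per-well concentrations.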

pEC50: −log10 of the molar value.

As usually defined, the pEC50 is the EC50 on a negative log10 scale, so that one unit is a factor of ten. The EC50 is the concentration giving half of the maximal effect.

T1 sequence (P13569 with tags, fused parts or gaps DEL508-508): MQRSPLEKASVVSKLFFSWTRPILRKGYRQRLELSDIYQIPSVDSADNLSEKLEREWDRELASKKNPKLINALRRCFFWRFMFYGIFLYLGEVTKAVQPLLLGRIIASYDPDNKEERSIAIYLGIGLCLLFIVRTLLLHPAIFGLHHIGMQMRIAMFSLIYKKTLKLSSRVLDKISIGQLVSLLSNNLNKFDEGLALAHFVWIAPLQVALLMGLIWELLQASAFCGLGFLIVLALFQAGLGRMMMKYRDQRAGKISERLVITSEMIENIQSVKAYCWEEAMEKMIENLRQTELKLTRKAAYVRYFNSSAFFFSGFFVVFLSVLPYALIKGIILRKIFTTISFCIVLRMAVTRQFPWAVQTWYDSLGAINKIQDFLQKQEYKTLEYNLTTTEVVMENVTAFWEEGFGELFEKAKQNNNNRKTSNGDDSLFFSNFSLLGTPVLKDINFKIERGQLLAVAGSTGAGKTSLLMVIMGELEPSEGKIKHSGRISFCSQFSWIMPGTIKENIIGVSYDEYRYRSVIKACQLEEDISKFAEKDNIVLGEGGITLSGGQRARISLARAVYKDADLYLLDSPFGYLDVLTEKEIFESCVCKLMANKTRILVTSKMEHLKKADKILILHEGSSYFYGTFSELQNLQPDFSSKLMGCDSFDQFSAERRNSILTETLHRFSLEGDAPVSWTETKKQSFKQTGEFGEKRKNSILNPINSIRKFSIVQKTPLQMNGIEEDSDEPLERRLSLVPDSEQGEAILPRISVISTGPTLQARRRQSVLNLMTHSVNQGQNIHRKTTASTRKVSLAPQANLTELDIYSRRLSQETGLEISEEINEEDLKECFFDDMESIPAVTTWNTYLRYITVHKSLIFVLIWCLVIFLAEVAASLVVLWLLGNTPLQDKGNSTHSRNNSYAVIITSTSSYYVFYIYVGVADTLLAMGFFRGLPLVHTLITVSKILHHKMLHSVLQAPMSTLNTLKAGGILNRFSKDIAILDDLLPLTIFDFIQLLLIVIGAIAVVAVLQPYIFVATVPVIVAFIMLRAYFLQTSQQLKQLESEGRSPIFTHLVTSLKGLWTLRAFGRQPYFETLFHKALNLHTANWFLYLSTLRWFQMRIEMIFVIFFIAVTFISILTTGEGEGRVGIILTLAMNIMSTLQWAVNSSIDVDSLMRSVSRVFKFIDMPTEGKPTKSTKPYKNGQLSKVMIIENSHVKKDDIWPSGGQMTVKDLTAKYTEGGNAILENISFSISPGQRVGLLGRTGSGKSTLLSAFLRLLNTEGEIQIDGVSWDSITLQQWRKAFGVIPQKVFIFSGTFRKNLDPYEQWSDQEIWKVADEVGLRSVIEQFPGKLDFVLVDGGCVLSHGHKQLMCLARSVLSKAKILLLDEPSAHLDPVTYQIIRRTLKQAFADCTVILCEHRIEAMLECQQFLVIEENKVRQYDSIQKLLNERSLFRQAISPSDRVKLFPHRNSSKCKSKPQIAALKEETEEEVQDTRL
T2 sequence (P13569 with tags, fused parts or gaps DEL508-508): as above

On to `CC(C)c1nn(-c2cccc(N3CCC3)c2)c2nc(C(=O)NS(C)(=O)=O)cc(-c3ccc(N4CCOCC4)cc3)c12` [Compound 10, 1-[3-(azetidin-1-yl)phenyl]-N-(methanesulfonyl)-4-[4-(morpholin-4-yl)phenyl]-3-(propan-2-yl)-1H-pyrazolo[3,4-b]pyridine-6-carboxamide], for which, at ΔF508-CFTR, the “% Activation” value amounted to 418.25% and the pEC50 was 6.24.

`CC(C)c1nn(C2CCCCC2)c2nc(C(=O)NS(C)(=O)=O)cc(-c3cnc(N4CCOCC4)nc3)c12` [Compound 11, 1-cyclohexyl-N-(methanesulfonyl)-4-[2-(morpholin-4-yl)pyrimidin-5-yl]-3-(propan-2-yl)-1H-pyrazolo[3,4-b]pyridine-6-carboxamide]: on ΔF508-CFTR, the “% Activation” value is 164.7% and the pEC50 was 6.25.

In the case of `Cc1nn(-c2ccccc2)c2nc(C(=O)NS(C)(=O)=O)cc(N3CCCCC3)c12` [Compound 13, N-(methanesulfonyl)-3-methyl-1-phenyl-4-(piperidin-1-yl)-1H-pyrazolo[3,4-b]pyridine-6-carboxamide], on ΔF508-CFTR, the “% Activation” value was 153.85% and the pEC50 was 5.63.

Take `CS(=O)(=O)NC(=O)c1cc(-c2ccc(N3CCC(C#N)CC3)nc2)c2c(C3CCC3)nn(C3CCCCC3)c2n1` [Compound 104, 4-[6-(4-cyanopiperidin-1-yl)pyridin-3-yl]-3-cyclobutyl-1-cyclohexyl-N-(methanesulfonyl)-1H-pyrazolo[3,4-b]pyridine-6-carboxamide]: on ΔF508-CFTR, the “% Activation” value amounted to 239.6% and the pEC50 was 6.30. Further, at CFTR ΔF508 (read-out: EC50 (nM) (Ieq*)), the EC50 was below 30 nM. Also, at CFTR ΔF508 (test compound at 1 μM), the “% Activity at 1 μM (Ieq*)” value was 720%.
